Patent publication US9969732B2, “Tetrahydroisoquinoline estrogen receptor modulators and uses thereof” (Genentech, Inc., priority 2016, dated 2018)

Molecular target: T1, ER-alpha (WT) (Homo sapiens, UniProt P03372)
T1 construct: endogenous in cells; host or cells: MCF7 breast cancer cells
T1 sequence (P03372 1-595): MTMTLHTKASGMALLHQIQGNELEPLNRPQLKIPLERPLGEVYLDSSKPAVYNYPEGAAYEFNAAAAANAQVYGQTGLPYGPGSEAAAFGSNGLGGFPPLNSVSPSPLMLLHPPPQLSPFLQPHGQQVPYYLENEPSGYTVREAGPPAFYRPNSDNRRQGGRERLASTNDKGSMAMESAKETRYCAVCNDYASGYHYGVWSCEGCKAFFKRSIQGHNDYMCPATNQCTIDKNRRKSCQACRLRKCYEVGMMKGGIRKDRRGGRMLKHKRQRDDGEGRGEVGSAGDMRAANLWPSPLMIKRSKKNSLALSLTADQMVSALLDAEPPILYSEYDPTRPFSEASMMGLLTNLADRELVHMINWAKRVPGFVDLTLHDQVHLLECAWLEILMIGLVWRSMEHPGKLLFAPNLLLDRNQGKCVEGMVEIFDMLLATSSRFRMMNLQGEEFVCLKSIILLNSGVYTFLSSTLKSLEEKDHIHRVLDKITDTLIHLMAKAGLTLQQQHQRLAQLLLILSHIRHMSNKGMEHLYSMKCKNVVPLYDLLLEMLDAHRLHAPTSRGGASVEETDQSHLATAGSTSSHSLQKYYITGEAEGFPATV
Assay: Breast Cancer Cell ERa High Content Fluorescence Imaging Degradation Assay (MCF7 HCS)
Format: cell-based
Details: MCF7 breast cancer cells, 4 hours incubation; for EC50: inflexion point of curve; for ERalpha (WT) MCF7 HCS (S inf): plateau of the maximal effect, DMSO and Fulvestrant define 0% and 100% changes in ESR1

SMILES | EC50 [nM] | ERalpha (WT) MCF7 HCS (S inf) [%]
C[C@@H](CN1CCc2cc(O)ccc2[C@]1(C)c1ccc(OCCN2CC(CF)C2)cc1)C(=O)O [Example 135, (S)-3-((S)-1-(4-(2-(3-(fluoromethyl)azetidin-1-yl)ethoxy)phenyl)-6-hydroxy-1-methyl-3,4-dihydroisoquinolin-2(1H)-yl)-2-methylpropanoic acid] | ≥ 100 | 
FCC1CN(CCOc2ccc([C@H]3c4ccc(-c5cn[nH]c5)cc4CCN3CC(F)(F)F)cc2)C1 [Example 145, (1S)-1-[4-[2-[3-(fluoromethyl)azetidin-1-yl]ethoxy]phenyl]-6-(1H-pyrazol-4-yl)-2-(2,2,2-trifluoroethyl)-3,4-dihydro-1H-isoquinoline] | ≥ 100 | −100
C[C@H]1Cc2cccc(O)c2[C@H](c2ccc(OCCN3CC(CF)C3)cc2)N1CC(F)(F)CO (single isomer, unassigned) [Example 168] | 510 | 
C[C@H]1Cc2ccccc2[C@H](c2ccc(OCCN3CC(CF)C3)cc2)N1CC(F)(F)F (single isomer, unassigned) [Example 155] | 31 | −70
C[C@@H]1Cc2cc(O)ccc2[C@H](c2ccc(OCCN3CC(CF)C3)cc2)N1S(C)(=O)=O [Example 114, (1S,3R)-1-[4-[2-[3-(fluoromethyl)azetidin-1-yl]ethoxy]phenyl]-3-methyl-2-methylsulfonyl-3,4-dihydro-1H-isoquinolin-6-ol] | ≥ 100 | 
C[C@@H]1Cc2cc(CO)ccc2[C@@H](c2ccc(OCCN3CC(CF)C3)cc2)N1CC(F)(F)F (single isomer, unassigned) [Example 159] | 0.043 | −99
C[C@H]1Cc2cc(C(C)(C)O)ccc2[C@H](c2ccc(OCCN3CC(CF)C3)cc2)N1CC(F)(F)F [Example 162, 2-((1S,3S)-1-(4-(2-(3-(Fluoromethyl)azetidin-1-yl)ethoxy)phenyl)-3-methyl-2-(2,2,2-trifluoroethyl)-1,2,3,4-tetrahydroisoquinolin-6-yl)propan-2-ol] | 280 | 
C[C@@H]1CN(S(C)(=O)=O)[C@H](c2ccc(OCCN3CC(CF)C3)cc2)c2ccc(O)cc21 [Example 120, (1R,4S)-1-[4-[2-[3-(fluoromethyl)azetidin-1-yl]ethoxy]phenyl]-4-methyl-2-methylsulfonyl-3,4-dihydro-1H-isoquinolin-6-ol] | 25.9 | −60
